# From the supplement of paper PMC10307832
# How the values were obtained:
# Experiment in all cases: relative viability (nuclei count vs DMSO), 5 days (fraction); higher = more cells survive
# Erlotinib + Vorinostat = compound: C#Cc1cccc(Nc2ncnc3cc(OCCOC)c(OCCOC)cc23)c1 [Erlotinib] + O=C(CCCCCCC(=O)Nc1ccccc1)NO [Vorinostat] (partner 1 µM)
# How it was run: (§1)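 Relative viability divides the nuclei count in treated wells by that in vehicle wells. Lung cancer cell lines were seeded in 1536-well plates, dosed by pin tool the next day, and fixed and stained after 5 days in one step with final 0.05% Triton X-100, 1% formaldehyde and 1 ug/ml Hoechst. Dosing was a single drug or a fixed anchor-drug dose plus five library-drug doses (not always all listed) in √10 steps, and values are medians of duplicate plates imaged at 4×.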
# Erlotinib + Navitoclax = compound: C#Cc1cccc(Nc2ncnc3cc(OCCOC)c(OCCOC)cc23)c1 [Erlotinib] + CC1(C)CCC(c2ccc(Cl)cc2)=C(CN2CCN(c3ccc(C(=O)NS(=O)(=O)c4ccc(N[C@H](CCN5CCOCC5)CSc5ccccc5)c(S(=O)(=O)C(F)(F)F)c4)cc3)CC2)C1 [Navitoclax] (partner 0.5 µM)
# How it was run: as §1
# AT9283 + Palbociclib = compound: O=C(Nc1c[nH]nc1-c1nc2ccc(CN3CCOCC3)cc2[nH]1)NC1CC1 [AT9283] + CC(=O)c1c(C)c2cnc(Nc3ccc(N4CCNCC4)cn3)nc2n(C2CCCC2)c1=O [Palbociclib] (partner 0.5 µM)
# How it was run: as §1
# AT9283 + Olaparib = compound: O=C(Nc1c[nH]nc1-c1nc2ccc(CN3CCOCC3)cc2[nH]1)NC1CC1 [AT9283] + O=C(c1cc(Cc2n[nH]c(=O)c3ccccc23)ccc1F)N1CCN(C(=O)C2CC2)CC1 [Olaparib] (partner 8 µM)
# How it was run: as §1
# AT9283 + AZD7762 = compound: O=C(Nc1c[nH]nc1-c1nc2ccc(CN3CCOCC3)cc2[nH]1)NC1CC1 [AT9283] + NC(=O)Nc1cc(-c2cccc(F)c2)sc1C(=O)N[C@H]1CCCNC1 [AZD7762] (partner 0.2 µM)
# How it was run: as §1
Cell Line,relative viability (Erlotinib + Vorinostat; first compound 0.02 µM),relative viability (Erlotinib + Vorinostat; first compound 0.2 µM),relative viability (Erlotinib + Vorinostat; first compound 0.6325 µM),relative viability (Erlotinib + Vorinostat; first compound 2 µM),relative viability (Erlotinib + Navitoclax; first compound 0.02 µM),relative viability (Erlotinib + Navitoclax; first compound 0.2 µM),relative viability (Erlotinib + Navitoclax; first compound 0.6325 µM),relative viability (Erlotinib + Navitoclax; first compound 2 µM),relative viability (AT9283 + Palbociclib; first compound 0.003 µM),relative viability (AT9283 + Palbociclib; first compound 0.03 µM),relative viability (AT9283 + Palbociclib; first compound 0.09487 µM),relative viability (AT9283 + Palbociclib; first compound 0.3 µM),relative viability (AT9283 + Olaparib; first compound 0.003 µM),relative viability (AT9283 + Olaparib; first compound 0.03 µM),relative viability (AT9283 + Olaparib; first compound 0.09487 µM),relative viability (AT9283 + Olaparib; first compound 0.3 µM),relative viability (AT9283 + AZD7762; first compound 0.003 µM),relative viability (AT9283 + AZD7762; first compound 0.03 µM),relative viability (AT9283 + AZD7762; first compound 0.09487 µM),relative viability (AT9283 + AZD7762; first compound 0.3 µM)
NCI-H1395,0.776,0.674,0.808,0.652,1.09,1.02,1.32,1.13,0.597,0.598,0.397,0.305,0.414,0.46,0.38,0.358,0.411,0.361,0.333,0.335
LU99A,0.505,0.507,0.49,0.468,0.937,0.784,0.725,0.746,0.358,0.226,0.14,0.139,0.258,0.214,0.14,0.123,0.457,0.137,0.139,0.148
HCC-827,0.228,0.186,0.121,0.132,0.465,0.167,0.162,0.172,0.478,0.428,0.272,0.174,0.702,0.53,0.344,0.255,0.234,0.169,0.145,0.153
201T,0.573,–,0.89,0.816,1.22,1.2,1.2,1.17,0.352,0.362,0.265,0.279,0.867,0.815,0.356,0.335,0.609,0.527,0.45,0.31
EKVX,0.716,0.372,0.323,0.259,0.939,0.693,0.289,0.184,0.387,0.368,0.274,0.179,0.796,0.758,0.496,0.239,0.647,0.56,0.584,0.289
LC-2-ad,0.731,0.794,0.75,0.589,0.488,0.472,0.397,0.229,0.458,0.415,0.29,0.229,0.708,0.647,0.304,0.196,0.848,0.794,0.398,0.227
HCC-15,0.876,–,0.868,0.676,0.735,0.68,0.736,0.617,0.65,0.681,0.187,0.164,0.691,0.574,0.192,0.183,1.26,1.19,0.926,0.255
PC-3 [JPC-3],–,0.441,0.351,0.362,0.653,0.443,0.349,0.295,0.602,0.533,0.575,0.484,1.31,1.03,0.844,0.607,0.826,0.741,0.609,0.394
ChaGo-K-1,0.784,0.721,0.82,0.74,0.68,0.981,1.25,0.777,0.931,0.761,0.295,0.212,0.444,0.352,0.252,0.203,0.88,0.685,0.404,0.222
LK-2,0.264,0.454,0.419,0.304,0.941,0.621,1.04,0.725,0.527,0.145,0.133,0.115,0.742,0.312,0.113,0.103,0.344,0.109,0.0946,0.0986
LOU-NH91,0.803,0.713,0.785,0.703,0.52,0.38,0.392,0.4,0.552,0.515,0.418,0.439,0.915,0.774,0.512,0.441,0.735,0.669,0.479,0.444
NCI-H3122,0.93,1.14,1.05,0.953,1.05,1.04,1.01,1.03,0.187,0.208,0.169,0.153,0.561,0.571,0.351,0.241,0.958,0.917,0.363,0.17
NCI-H647,0.735,0.485,0.556,0.565,1.42,0.955,1.5,0.991,0.395,0.363,0.126,0.131,0.555,0.311,0.0867,0.0596,0.524,0.13,0.0611,0.0591
EMC-BAC-2,–,0.543,0.524,0.446,1.13,1.04,0.974,0.906,0.471,0.376,0.289,0.247,0.502,0.301,0.261,0.203,1.04,0.411,0.349,0.281
HARA,0.643,0.598,0.402,0.445,1.16,1.08,0.88,0.964,0.265,0.23,0.135,0.141,0.756,0.278,0.205,0.179,0.315,0.232,0.0942,0.158
PC-14,0.428,0.0858,0.0926,0.061,0.935,–,0.391,0.31,0.526,0.273,0.105,0.0809,0.264,0.151,0.074,0.0669,0.341,0.371,0.206,0.0832

Cell Line,relative viability (Erlotinib + Vorinostat; first compound 0.02 µM),relative viability (Erlotinib + Vorinostat; first compound 0.2 µM),relative viability (Erlotinib + Vorinostat; first compound 0.6325 µM),relative viability (Erlotinib + Vorinostat; first compound 2 µM),relative viability (Erlotinib + Navitoclax; first compound 0.02 µM),relative viability (Erlotinib + Navitoclax; first compound 0.2 µM),relative viability (Erlotinib + Navitoclax; first compound 0.6325 µM),relative viability (Erlotinib + Navitoclax; first compound 2 µM),relative viability (AT9283 + Palbociclib; first compound 0.003 µM),relative viability (AT9283 + Palbociclib; first compound 0.03 µM),relative viability (AT9283 + Palbociclib; first compound 0.09487 µM),relative viability (AT9283 + Palbociclib; first compound 0.3 µM),relative viability (AT9283 + Olaparib; first compound 0.003 µM),relative viability (AT9283 + Olaparib; first compound 0.03 µM),relative viability (AT9283 + Olaparib; first compound 0.09487 µM),relative viability (AT9283 + Olaparib; first compound 0.3 µM),relative viability (AT9283 + AZD7762; first compound 0.003 µM),relative viability (AT9283 + AZD7762; first compound 0.03 µM),relative viability (AT9283 + AZD7762; first compound 0.09487 µM),relative viability (AT9283 + AZD7762; first compound 0.3 µM)
NCI-H1915,0.536,0.529,0.508,0.485,0.865,0.807,0.841,0.745,0.545,0.51,0.254,0.153,0.266,0.228,0.17,0.143,0.617,0.548,0.334,0.222
NCI-H838,0.821,0.694,0.703,0.684,1.26,1.11,1.27,1.05,0.257,0.227,0.154,0.138,0.745,0.323,0.183,0.164,0.968,0.705,0.612,0.655
BEN,0.66,0.523,0.637,0.547,0.0747,0.0625,0.0619,0.0646,0.458,0.456,0.412,0.356,0.969,0.747,0.481,0.298,0.595,0.62,0.327,0.321
NCI-H1975,0.722,0.726,0.701,0.58,1.11,1.07,1.07,0.977,0.526,0.676,0.531,0.324,0.731,0.723,0.783,0.647,0.7,0.711,0.622,0.458
LXF-289,0.824,0.762,0.66,0.758,0.904,0.991,0.933,0.869,0.608,0.647,0.254,0.152,1.13,0.98,0.0877,0.0796,1.11,0.782,0.141,0.096
NCI-H1993,0.811,0.724,0.633,0.461,0.848,0.725,0.786,0.722,0.597,0.665,0.534,0.34,1.07,1,0.552,0.391,0.822,0.745,0.469,0.326
NCI-H23,0.704,0.502,0.666,0.485,0.894,0.88,1.16,0.596,0.496,0.454,0.417,0.243,0.334,0.297,0.3,0.211,0.265,0.295,0.179,0.128
CAL-12T,0.763,0.54,0.359,0.313,1.35,1.31,0.614,0.546,0.543,0.257,0.165,0.217,0.734,0.536,0.307,0.222,0.584,0.502,0.347,0.189
LCLC-97TM1,–,0.503,1.01,0.596,0.39,–,0.464,0.391,0.199,0.201,0.106,0.0962,0.41,0.233,0.103,0.0959,0.305,0.102,0.0858,0.0762
NCI-H322M,0.832,0.716,0.688,0.546,1.12,1.09,0.77,0.468,0.481,0.494,0.423,0.427,0.834,0.58,0.518,0.453,0.554,0.395,0.46,0.487
NCI-H1734,0.954,–,0.938,0.81,0.852,0.795,0.907,0.75,0.336,0.281,0.227,0.233,0.643,0.414,0.293,0.259,0.533,0.274,0.225,0.245
HCC-366,0.41,0.363,0.369,0.222,1.03,1.02,1.02,1.01,0.373,0.309,0.157,0.101,0.362,0.262,0.113,0.0721,0.209,0.485,0.0684,0.0719
NCI-H1437,–,0.873,0.818,0.667,–,1.15,–,0.976,0.319,0.354,0.206,0.193,0.616,0.549,0.3,0.277,1.11,0.98,0.431,0.291
NCI-H1651,0.533,0.541,0.564,0.462,1.04,0.861,1.11,0.934,0.476,0.502,0.534,0.237,0.176,0.189,0.209,0.243,0.43,0.441,0.403,0.213
NCI-H727,1.29,1.24,1.03,1.01,0.447,0.393,0.384,0.347,0.583,0.626,0.514,0.428,0.84,0.768,0.494,0.496,0.684,0.574,0.37,0.383
HCC-78,0.428,0.437,0.36,0.335,0.731,0.503,0.744,0.621,0.473,0.476,0.396,0.347,0.909,0.599,0.273,0.249,0.593,0.44,0.353,0.234
